Target: Tyrosine-protein kinase Fgr (Homo sapiens) (UniProt P09769)
Assay: inhibitors of human FGR tyrosine kinase activity – biochemical, Z'-LYTE, FRET readout, direct format, dose response (AID 1671277)
Details: recombinant FGR

Tyrosine-protein kinase Fgr (Homo sapiens), sequence (P09769 whole entry, looked up): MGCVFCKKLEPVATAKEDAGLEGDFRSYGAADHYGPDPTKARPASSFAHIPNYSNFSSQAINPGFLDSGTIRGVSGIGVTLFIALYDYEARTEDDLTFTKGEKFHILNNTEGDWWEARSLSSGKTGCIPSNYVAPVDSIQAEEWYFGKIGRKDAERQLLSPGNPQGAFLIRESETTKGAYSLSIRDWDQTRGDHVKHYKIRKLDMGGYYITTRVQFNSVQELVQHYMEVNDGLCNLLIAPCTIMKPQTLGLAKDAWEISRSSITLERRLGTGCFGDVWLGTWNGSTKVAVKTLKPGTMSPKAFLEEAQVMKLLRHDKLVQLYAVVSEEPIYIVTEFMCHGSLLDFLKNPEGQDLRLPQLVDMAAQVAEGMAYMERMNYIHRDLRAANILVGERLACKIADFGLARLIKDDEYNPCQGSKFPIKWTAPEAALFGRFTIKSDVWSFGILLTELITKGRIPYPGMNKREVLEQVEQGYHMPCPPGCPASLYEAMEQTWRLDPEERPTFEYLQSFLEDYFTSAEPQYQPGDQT

COc1cc2ncnc(Nc3cccc(Cl)c3)c2cc1OC
IC50: 919 nM

Reference: PubChem BioAssay AID1671277
